Results taken from patent US9346798B2, “Dihydrobenzoxazine and tetrahydroquinoxaline sodium channel inhibitors” (AMGEN INC., priority 2012, dated 2016).

Experiments:
Type in all cases: cell-based
Nav 1.5 = Nav 1.5 (Homo sapiens (Human), UniProt Q14524); experiment: Nav 1.5 in vitro assay, IonWorks Quattro (IWQ) population patch-clamp; settings: HEK 293 cells stably transfected with Nav 1.5; 26th pulse to -20 mV
Nav 1.7 [1] = target: T1, Nav 1.7 (Homo sapiens (Human), UniProt Q15858); experiment: Nav 1.7 in vitro PX assay, PatchXpress whole cell voltage clamp; settings: HEK 293 cells stably transfected with human Nav1.7; for IC50: partially inactivated state (20 to 50% inactivation)
Outline: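 Partially inactivated channels (20–50% inactivation at holding potential) were probed on automated patch clamp in stably transfected HEK293 cells, stepping to −10 mV for 20 msec every 10 s (0.1 Hz).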

Nav 1.7 [2] = target: T1, Nav 1.7; experiment: Nav 1.7 in vitro assay, IonWorks Quattro (IWQ) population patch-clamp; settings: HEK 293 cells stably transfected with Nav 1.7; 26th pulse to -20 mV

T1 sequence (Q15858 whole entry): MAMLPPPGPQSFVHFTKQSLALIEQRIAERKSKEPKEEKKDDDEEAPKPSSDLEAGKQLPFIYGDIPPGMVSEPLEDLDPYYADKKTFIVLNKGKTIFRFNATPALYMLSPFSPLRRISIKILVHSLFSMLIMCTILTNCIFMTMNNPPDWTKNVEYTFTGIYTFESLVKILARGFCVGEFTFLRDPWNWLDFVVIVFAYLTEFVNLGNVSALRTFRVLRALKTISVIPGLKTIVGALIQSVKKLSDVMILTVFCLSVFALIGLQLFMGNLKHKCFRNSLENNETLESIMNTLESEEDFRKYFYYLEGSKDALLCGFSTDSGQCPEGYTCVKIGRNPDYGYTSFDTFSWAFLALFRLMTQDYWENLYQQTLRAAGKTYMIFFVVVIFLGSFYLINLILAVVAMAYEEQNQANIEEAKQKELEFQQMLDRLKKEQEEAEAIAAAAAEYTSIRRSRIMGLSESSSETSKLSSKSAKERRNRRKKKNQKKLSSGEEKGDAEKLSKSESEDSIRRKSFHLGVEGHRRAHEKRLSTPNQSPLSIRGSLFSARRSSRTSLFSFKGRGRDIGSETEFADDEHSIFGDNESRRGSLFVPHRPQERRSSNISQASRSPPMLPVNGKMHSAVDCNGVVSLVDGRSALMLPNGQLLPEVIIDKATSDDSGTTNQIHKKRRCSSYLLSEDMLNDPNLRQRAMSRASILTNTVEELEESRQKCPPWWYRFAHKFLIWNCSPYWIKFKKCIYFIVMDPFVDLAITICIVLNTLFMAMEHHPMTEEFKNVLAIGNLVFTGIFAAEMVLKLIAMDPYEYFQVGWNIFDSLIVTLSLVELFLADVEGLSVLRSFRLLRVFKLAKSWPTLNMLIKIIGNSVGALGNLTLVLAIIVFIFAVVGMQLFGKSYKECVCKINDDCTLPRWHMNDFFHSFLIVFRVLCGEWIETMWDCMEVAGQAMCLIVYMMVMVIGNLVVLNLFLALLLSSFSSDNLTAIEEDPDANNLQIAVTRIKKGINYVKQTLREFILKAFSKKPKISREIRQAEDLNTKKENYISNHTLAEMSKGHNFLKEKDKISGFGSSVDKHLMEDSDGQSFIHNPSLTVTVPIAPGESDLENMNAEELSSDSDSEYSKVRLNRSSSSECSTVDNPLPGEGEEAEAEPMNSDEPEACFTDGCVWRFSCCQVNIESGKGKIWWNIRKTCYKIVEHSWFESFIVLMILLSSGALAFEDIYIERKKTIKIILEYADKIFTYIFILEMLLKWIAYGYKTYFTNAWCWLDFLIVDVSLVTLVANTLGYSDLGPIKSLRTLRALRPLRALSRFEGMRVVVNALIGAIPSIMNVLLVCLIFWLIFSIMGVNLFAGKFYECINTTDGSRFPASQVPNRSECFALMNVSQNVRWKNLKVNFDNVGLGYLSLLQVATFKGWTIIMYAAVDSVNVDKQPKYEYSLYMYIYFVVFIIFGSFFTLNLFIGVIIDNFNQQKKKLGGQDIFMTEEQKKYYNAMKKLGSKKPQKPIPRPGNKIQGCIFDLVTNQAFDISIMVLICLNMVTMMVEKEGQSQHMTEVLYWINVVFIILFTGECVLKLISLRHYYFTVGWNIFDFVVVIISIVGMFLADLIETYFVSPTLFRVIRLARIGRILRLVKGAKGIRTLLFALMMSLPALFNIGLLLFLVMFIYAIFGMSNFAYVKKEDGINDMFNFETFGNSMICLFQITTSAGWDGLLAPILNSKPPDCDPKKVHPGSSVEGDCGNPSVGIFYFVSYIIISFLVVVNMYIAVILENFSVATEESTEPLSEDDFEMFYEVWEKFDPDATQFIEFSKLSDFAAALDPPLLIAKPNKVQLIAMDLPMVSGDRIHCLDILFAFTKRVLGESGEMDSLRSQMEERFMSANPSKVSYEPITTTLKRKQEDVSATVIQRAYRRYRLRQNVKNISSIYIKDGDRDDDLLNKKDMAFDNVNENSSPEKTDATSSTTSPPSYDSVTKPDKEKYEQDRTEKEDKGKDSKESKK
Nav 1.5, sequence (Q14524 whole entry): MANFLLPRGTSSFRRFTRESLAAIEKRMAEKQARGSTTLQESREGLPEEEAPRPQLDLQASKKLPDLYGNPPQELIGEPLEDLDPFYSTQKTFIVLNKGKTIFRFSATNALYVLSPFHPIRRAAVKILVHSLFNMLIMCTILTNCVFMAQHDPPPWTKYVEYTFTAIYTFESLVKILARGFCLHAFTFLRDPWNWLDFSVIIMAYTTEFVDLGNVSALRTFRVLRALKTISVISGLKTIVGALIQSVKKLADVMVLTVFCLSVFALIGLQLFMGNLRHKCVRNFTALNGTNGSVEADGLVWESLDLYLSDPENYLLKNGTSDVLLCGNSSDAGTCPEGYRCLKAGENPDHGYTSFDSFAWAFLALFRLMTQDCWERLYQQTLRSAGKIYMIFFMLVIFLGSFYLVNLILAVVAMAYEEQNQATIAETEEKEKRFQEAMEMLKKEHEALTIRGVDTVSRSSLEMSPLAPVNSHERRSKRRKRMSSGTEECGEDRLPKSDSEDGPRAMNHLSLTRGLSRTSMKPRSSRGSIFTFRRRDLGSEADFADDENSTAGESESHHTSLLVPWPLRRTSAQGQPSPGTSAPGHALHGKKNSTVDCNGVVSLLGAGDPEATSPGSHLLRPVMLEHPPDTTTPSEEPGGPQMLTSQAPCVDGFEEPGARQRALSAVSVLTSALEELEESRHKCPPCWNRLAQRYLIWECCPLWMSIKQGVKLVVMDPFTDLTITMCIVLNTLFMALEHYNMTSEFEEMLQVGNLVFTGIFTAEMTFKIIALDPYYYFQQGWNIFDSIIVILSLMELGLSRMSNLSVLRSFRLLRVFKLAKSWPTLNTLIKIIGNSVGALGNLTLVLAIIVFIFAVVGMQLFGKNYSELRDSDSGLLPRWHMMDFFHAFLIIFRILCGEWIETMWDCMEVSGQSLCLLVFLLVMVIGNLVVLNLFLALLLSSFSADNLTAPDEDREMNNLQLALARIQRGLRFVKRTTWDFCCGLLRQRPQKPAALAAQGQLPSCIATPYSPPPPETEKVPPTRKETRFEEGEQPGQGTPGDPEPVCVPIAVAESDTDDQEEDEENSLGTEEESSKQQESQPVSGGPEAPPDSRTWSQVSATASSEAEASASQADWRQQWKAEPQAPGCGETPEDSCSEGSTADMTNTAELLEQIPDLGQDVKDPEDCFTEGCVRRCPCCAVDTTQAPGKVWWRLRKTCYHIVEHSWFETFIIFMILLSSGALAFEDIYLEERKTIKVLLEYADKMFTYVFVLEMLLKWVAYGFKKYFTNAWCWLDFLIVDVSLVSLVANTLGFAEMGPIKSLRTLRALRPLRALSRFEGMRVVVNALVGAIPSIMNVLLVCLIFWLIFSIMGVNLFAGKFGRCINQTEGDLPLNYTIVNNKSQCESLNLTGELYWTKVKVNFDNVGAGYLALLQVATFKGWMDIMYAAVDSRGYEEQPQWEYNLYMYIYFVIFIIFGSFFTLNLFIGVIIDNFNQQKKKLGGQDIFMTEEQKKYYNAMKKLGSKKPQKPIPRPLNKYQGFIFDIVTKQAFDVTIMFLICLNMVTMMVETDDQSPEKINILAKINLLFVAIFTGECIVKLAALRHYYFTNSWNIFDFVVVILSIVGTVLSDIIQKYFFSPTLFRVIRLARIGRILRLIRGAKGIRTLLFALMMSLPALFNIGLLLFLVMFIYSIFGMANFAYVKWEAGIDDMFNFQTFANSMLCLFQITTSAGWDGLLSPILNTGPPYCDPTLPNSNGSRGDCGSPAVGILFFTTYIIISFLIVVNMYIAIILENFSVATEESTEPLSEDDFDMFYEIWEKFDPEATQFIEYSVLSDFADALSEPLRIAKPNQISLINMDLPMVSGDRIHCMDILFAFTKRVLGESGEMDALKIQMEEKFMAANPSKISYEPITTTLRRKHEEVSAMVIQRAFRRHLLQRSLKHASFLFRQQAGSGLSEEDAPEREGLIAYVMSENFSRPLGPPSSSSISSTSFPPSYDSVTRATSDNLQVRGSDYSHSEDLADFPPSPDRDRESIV

Structure (SMILES) | IC50 (Nav 1.7 [1]) [µM] | IC50 (Nav 1.7 [2]) [µM] | inhibition at 4.9 µM (Nav 1.7 [1]; HEK293, values marked *, 4.9 μM, read-out: Nav 1.7 PX percent inhibition at 4.9 μM) [%] | IC50 (Nav 1.5) [µM]
N#Cc1cc(-c2ccccc2F)ccc1N1CCOc2cc(S(=O)(=O)Nc3nccs3)ccc21 [Example 198, 4-(3-cyano-2′-fluoro-[1,1′-biphenyl]-4-yl)-N-(thiazol-2-yl)-3,4-dihydro-2H-benzo[b][1,4]oxazine-7-sulfonamide] | 0.339 | 0.627 | – | 1.88
O=S(=O)(Nc1ncns1)c1ccc2c(c1)OCCN2c1cccc2ccccc12 [Example 36, 4-(Naphthalen-1-Yl)-N-(1,2,4-Thiadiazol-5-Yl)-3,4-Dihydro-2H-Benzo[B][1,4]Oxazine-7-Sulfonamide] | 0.145 | 0.0315 | – | > 10
N#Cc1cc(C(F)(F)F)ccc1N1CCOc2cc(S(=O)(=O)Nc3ccncn3)ccc21 [Example 89, 4-(2-Cyano-4-(Trifluoromethyl)Phenyl)-N-(Pyrimidin-4-Yl)-3,4-Dihydro-2H-Benzo[B][1,4]Oxazine-7-Sulfonamide] | 0.464 | 0.0285 | – | 1.14
O=S(=O)(Nc1nccs1)c1ccc2c(c1)OCCN2c1ccccc1C1=CCNCC1 [Example 59, 4-(2-(1,2,3,6-Tetrahydropyridin-4-Yl)Phenyl)-N-(Thiazol-2-Yl)-3,4-Dihydro-2H-Benzo[B][1,4]Oxazine-7-Sulfonamide 2,2,2-Trifluoroacetate] | 0.252 | 0.015 | – | 5.57
COc1cc(Cl)ccc1N1C[C@@H](C)Oc2cc(S(=O)(=O)Nc3nccs3)ccc21 (single isomer, unassigned) [Example 105] | 0.894 | 0.0535 | – | > 10
COc1cc(Cl)ccc1N1CC(C)Oc2cc(S(=O)(=O)Nc3nccs3)ccc21 (racemic) [Example 103, 4-(4-Chloro-2-Methoxyphenyl)-2-Methyl-N-(Thiazol-2-Yl)-3,4-Dihydro-2H-Benzo[B][1,4]Oxazine-7-Sulfonamide] | 0.422 | 0.04 | – | 9.59
COc1cc(Cl)ccc1N1C[C@H](C)Oc2cc(S(=O)(=O)Nc3nccs3)ccc21 (single isomer, unassigned) [Example 104] | 0.657 | 0.11 | – | > 10
COc1ccc(C(F)(F)F)cc1N1CCOc2cc(S(=O)(=O)Nc3nccs3)ccc21 [Example 114, 4-(2-Methoxy-5-(trifluoromethyl)phenyl)-N-(thiazol-2-yl)-3,4-dihydro-2H-benzo[b][1,4]oxazine-7-sulfonamide] | 0.278 | 0.0405 | – | 5.06
N#Cc1ccc(OC(F)(F)F)cc1N1CCOc2cc(S(=O)(=O)Nc3nccs3)ccc21 [Example 128, 4-(2-Cyano-5-(trifluoromethoxy)phenyl)-N-(thiazol-2-yl)-3,4-dihydro-2H-benzo[b][1,4]oxazine-7-sulfonamide] | 0.912 | 0.0695 | – | 3.69
N#Cc1cc(C(F)(F)F)ccc1N1CCOc2cc(S(=O)(=O)Nc3ncco3)ccc21 [Example 90, 4-(2-Cyano-4-(Trifluoromethyl)Phenyl)-N-(Oxazol-2-Yl)-3,4-Dihydro-2H-Benzo[B][1,4]Oxazine-7-Sulfonamide] | 2.59 | 0.924 | – | > 10
O=S(=O)(Nc1ccncn1)c1ccc2c(c1)OCCN2c1ccc(C(F)(F)F)cc1Br [Example 47, 4-(2-Bromo-4-(Trifluoromethyl)Phenyl)-N-(Pyrimidin-4-Yl)-3,4-Dihydro-2H-Benzo[B][1,4]Oxazine-7-Sulfonamide] | 0.303 | 0.0145 | – | 7.93
O=S(=O)(Nc1ccncn1)c1ccc2c(c1)OCCN2c1ccc(C(F)(F)F)cc1C1=CCNCC1 [Example 45, N-(Pyrimidin-4-Yl)-4-(2-(1,2,3,6-Tetrahydropyridin-4-Yl)-4-(Trifluoromethyl)Phenyl)-3,4-Dihydro-2H-Benzo[B][1,4]Oxazine-7-Sulfonamide 2,2,2-Trifluoroacetate] | 0.135 | 0.0062 | – | 1.2
COc1nc(C(F)(F)F)ccc1N1CCOc2cc(S(=O)(=O)Nc3nccs3)ccc21 [Example 214, 4-(2-Methoxy-6-(Trifluoromethyl)Pyridin-3-Yl)-N-(Thiazol-2-Yl)-3,4-Dihydro-2H-Benzo[B][1,4]Oxazine-7-Sulfonamide] | 0.8 | 0.0685 | – | > 10
NCc1nsc(NS(=O)(=O)c2ccc3c(c2)OCCN3c2ccc(C(F)(F)F)cc2Cl)n1 [Example 8, N-(3-(Aminomethyl)-1,2,4-Thiadiazol-5-Yl)-4-(2-Chloro-4-(Trifluoromethyl)Phenyl)-3,4-Dihydro-2H-Benzo[B][1,4]Oxazine-7-Sulfonamide 2,2,2-Trifluoroacetate] | 16 | 7.58 | – | > 10
O=S(=O)(Nc1nccs1)c1ccc2c(c1)OCCN2c1ccc2ncsc2c1 [Example 71, 4-(Benzo[D]Thiazol-6-Yl)-N-(Thiazol-2-Yl)-3,4-Dihydro-2H-Benzo[B][1,4]Oxazine-7-Sulfonamide 2,2,2-Trifluoroacetate] | 5.32 | 0.605 | – | > 10
C[C@H]1CN(c2ccc(C(F)(F)F)cc2C#N)c2ccc(S(=O)(=O)Nc3nccs3)cc2O1 (single isomer, unassigned) [Example 94] | 0.149 | 0.0085 | – | 0.724
O=S(=O)(Nc1nccs1)c1ccc2c(c1)OCCN2c1ccc(Cl)c(Cl)c1 [Example 74, 4-(3,4-Dichlorophenyl)-N-(Thiazol-2-Yl)-3,4-Dihydro-2H-Benzo[B][1,4]Oxazine-7-Sulfonamide 2,2,2-Trifluoroacetate] | 4.07 | 5.24 | – | 6.08
O=S(=O)(Nc1ncns1)c1ccc2c(c1)OCCN2c1ccc(C(F)(F)F)cc1-c1cn[nH]c1 [Example 4, 4-(2-(1H-Pyrazol-4-Yl)-4-(Trifluoromethyl)Phenyl)-N-(1,2,4-Thiadiazol-5-Yl)-3,4-Dihydro-2H-Benzo[B][1,4]Oxazine-7-Sulfonamide] | 0.0576 | 0.00933 | – | 0.944
N#Cc1cc(C(F)(F)F)ccc1N1CCOc2cc(S(=O)(=O)Nc3ccno3)ccc21 [Example 91, 4-(2-Cyano-4-(Trifluoromethyl)Phenyl)-N-(Isoxazol-5-Yl)-3,4-Dihydro-2H-Benzo[B][1,4]Oxazine-7-Sulfonamide] | 9.21 | 3.64 | – | > 10

Continued, in another order:

IC50 (Nav 1.7 [1]) [µM] | IC50 (Nav 1.7 [2]) [µM] | inhibition at 4.9 µM (Nav 1.7 [1]; HEK293, values marked *, 4.9 μM, read-out: Nav 1.7 PX percent inhibition at 4.9 μM) [%] | Structure (SMILES) | IC50 (Nav 1.5) [µM]
5.69 | 0.638 | – | O=S(=O)(Nc1nccs1)c1ccc2c(c1)OCCN2c1ccc2scnc2c1 [Example 70, 4-(Benzo[D]Thiazol-5-Yl)-N-(Thiazol-2-Yl)-3,4-Dihydro-2H-Benzo[B][1,4]Oxazine-7-Sulfonamide 2,2,2-Trifluoroacetate] | > 10
2.24 | 0.796 | – | COc1ccc(N2CCOc3cc(S(=O)(=O)Nc4nccs4)ccc32)c(OC)c1 [Example 120, 4-(2,4-Dimethoxyphenyl)-N-(thiazol-2-yl)-3,4-dihydro-2H-benzo[b][1,4]oxazine-7-sulfonamide] | > 10
4.32 | 0.713 | – | O=S(=O)(Nc1nccs1)c1ccc2c(c1)OCCN2c1ccc(Cl)cc1 [Example 40, 4-(4-Chlorophenyl)-N-(Thiazol-2-Yl)-3,4-Dihydro-2H-Benzo[B][1,4]Oxazine-7-Sulfonamide] | > 10
– | 1.7 | 39.2 | Cc1cc(F)cnc1N1CCOc2cc(S(=O)(=O)Nc3nccs3)ccc21 [Example 110, 4-(5-Fluoro-3-methylpyridin-2-yl)-N-(thiazol-2-yl)-3,4-dihydro-2H-benzo[b][1,4]oxazine-7-sulfonamide] | > 10
21.7 | 0.914 | – | COc1cc(C)c(N2CCOc3cc(S(=O)(=O)Nc4nccs4)ccc32)cn1 [Example 137, 4-(6-Methoxy-4-methylpyridin-3-yl)-N-(thiazol-2-yl)-3,4-dihydro-2H-benzo[b][1,4]oxazine-7-sulfonamide] | > 10
0.706 | 0.182 | – | Cc1cccc(N2CCOc3cc(S(=O)(=O)Nc4nccs4)ccc32)c1 [Example 75, N-(Thiazol-2-Yl)-4-(M-Tolyl)-3,4-Dihydro-2H-Benzo[B][1,4]Oxazine-7-Sulfonamide 2,2,2-Trifluoroacetate] | 7.37
2.9 | 0.263 | – | O=S(=O)(Nc1nccs1)c1ccc2c(c1)OCCN2c1cccc2c1OC(F)(F)O2 [Example 129, 4-(2,2-Difluorobenzo[d][1,3]dioxol-4-yl)-N-(thiazol-2-yl)-3,4-dihydro-2H-benzo[b][1,4]oxazine-7-sulfonamide] | > 10
0.976 | 0.14 | – | N#Cc1ccc(N2CCOc3cc(S(=O)(=O)Nc4nccs4)ccc32)c(Cl)c1 [Example 191, 4-(2-Chloro-4-Cyanophenyl)-N-(Thiazol-2-Yl)-3,4-Dihydro-2H-Benzo[B][1,4]Oxazine-7-Sulfonamide] | > 10
0.322 | 0.245 | – | O=S(=O)(Nc1nccs1)c1ccc2c(c1)OCCN2c1ccc(C(F)(F)F)cc1Cl [Example 5, 4-(2-Chloro-4-(Trifluoromethyl)Phenyl)-N-(Thiazol-2-Yl)-3,4-Dihydro-2H-Benzo[B][1,4]Oxazine-7-Sulfonamide] | 4.03
0.75 | 0.112 | – | O=S(=O)(Nc1nccs1)c1ccc2c(c1)OCCN2c1ccccc1OC(F)F [Example 179, 4-(2-(Difluoromethoxy)Phenyl)-N-(Thiazol-2-Yl)-3,4-Dihydro-2H-Benzo[B][1,4]Oxazine-7-Sulfonamide 2,2,2-Trifluoroacetate] | 5.64
